What follows are compounds tested on 8XTBD luciferase reporter (YAP) in HEK293T cells (assay: YAP Reporter Assay). Settings: Homo sapiens, HEK-293T, 24 h, read-out: Firefly Luciferase IC50 (μM).
Format: cell-based

| Structure (SMILES) | IC50 |
| --- | --- |
| O=C1N[C@@H](c2nnc(-c3ccccc3Nc3ccc(C(F)(F)F)cc3)o2)CO1 [Compound 77, (R)-4-(5-(2-((4-(trifluoromethyl)phenyl)amino)phenyl)-1,3,4-oxadiazol-2-yl)oxazolidin-2-one] | < 0.1 µM |
| O=C1N[C@H](c2nnc(-c3ccccc3Nc3ccc(C(F)(F)F)cc3)o2)CO1 [Compound 78, (S)-4-(5-(2-((4-(trifluoromethyl)phenyl)amino)phenyl)-1,3,4-oxadiazol-2-yl)oxazolidin-2-one] | 0.1 to 1 µM |

Same assay, conditions: Homo sapiens, HEK-293T; HEK293T cells stably transfected with 8XTBD luciferase reporter and pRLTK; 24-hr incubation; top concentration 3 μM; read-out: Firefly Luciferase IC50

| Structure (SMILES) | IC50 |
| --- | --- |
| C#CC(C)Oc1nnc(-c2ccccc2Nc2ccc(C(F)(F)F)cc2)o1 (stereo not drawn) [Compound 69, 2-(5-(but-3-yn-2-yloxy)-1,3,4-oxadiazol-2-yl)-N-(4-(trifluoromethyl)phenyl)aniline] | < 0.1 µM |
| CS(=O)(=O)c1nnc(-c2ccccc2Nc2ccc(C(F)(F)F)cc2)o1 [Compound 71, 2-(5-(methylsulfonyl)-1,3,4-oxadiazol-2-yl)-N-(4-(trifluoromethyl)phenyl)aniline] | 0.1 to 1 µM |
| CSc1nnc(-c2ccccc2Nc2ccc(C(F)(F)F)cc2)o1 [Compound 72, 2-(5-(methylthio)-1,3,4-oxadiazol-2-yl)-N-(4-(trifluoromethyl)phenyl)aniline] | 0.1 to 1 µM |
| COc1nnc(-c2ccccc2Nc2ccc(C(F)(F)F)cc2)o1 [Compound 73, 2-(5-methoxy-1,3,4-oxadiazol-2-yl)-N-(4-(trifluoromethyl)phenyl)aniline] | < 0.1 µM |
| C[C@@]1(c2nnc(-c3ccccc3Nc3ccc(C(F)(F)F)cc3)o2)CCNC1=O [Compound 75, (S)-3-methyl-3-(5-(2-((4-(trifluoromethyl)phenyl)amino)phenyl)-1,3,4-oxadiazol-2-yl)pyrrolidin-2-one] | < 0.1 µM |
| C[C@]1(c2nnc(-c3ccccc3Nc3ccc(C(F)(F)F)cc3)o2)CCNC1=O [Compound 76, (R)-3-methyl-3-(5-(2-((4-(trifluoromethyl)phenyl)amino)phenyl)-1,3,4-oxadiazol-2-yl)pyrrolidin-2-one] | < 0.1 µM |
| OC(CCl)c1nnc(-c2ccccc2Nc2ccc(C(F)(F)F)cc2)o1 (stereo not drawn) [Compound 81, 2-chloro-1-(5-(2-((4-(trifluoromethyl)phenyl)amino)phenyl)-1,3,4-oxadiazol-2-yl)ethan-1-ol] | < 0.1 µM |
| FC(F)(F)c1ccc(Nc2ccccc2-c2nnc(OC/C=C/Br)o2)cc1 [Compound 82, (E)-2-(5-((3-bromoallyl)oxy)-1,3,4-oxadiazol-2-yl)-N-(4-(trifluoromethyl)phenyl)aniline] | 0.1 to 1 µM |
| C#CCOc1nnc(-c2ccccc2Nc2ccc(C(F)(F)F)cc2)o1 [Compound 83, 2-(5-(prop-2-yn-1-yloxy)-1,3,4-oxadiazol-2-yl)-N-(4-(trifluoromethyl)phenyl)aniline] | < 0.1 µM |
| CC(=O)c1nnc(-c2ccccc2Nc2ccc(C(F)(F)F)cc2)o1 [Compound 85, 1-(5-(2-((4-(trifluoromethyl)phenyl)amino)phenyl)-1,3,4-oxadiazol-2-yl)ethan-1-one] | < 0.1 µM |
| CC1(c2nnc(-c3ccccc3Nc3ccc(C(F)(F)F)cc3)o2)OCCO1 [Compound 86, 2-(5-(2-methyl-1,3-dioxolan-2-yl)-1,3,4-oxadiazol-2-yl)-N-(4-(trifluoromethyl)phenyl)aniline] | < 0.1 µM |
| CON(C)C(=O)C(C)(C)c1nnc(-c2ccccc2Nc2ccc(C(F)(F)F)cc2)o1 [Compound 87, N-methoxy-N,2-dimethyl-2-(5-(2-((4-(trifluoromethyl)phenyl)amino)phenyl)-1,3,4-oxadiazol-2-yl)propanamide] | < 0.1 µM |
| N#CC1(Cc2nnc(-c3ccccc3Nc3ccc(C(F)(F)F)cc3)o2)CC1 [Compound 88, 1-((5-(2-((4-(trifluoromethyl)phenyl)amino)phenyl)-1,3,4-oxadiazol-2-yl)methyl)cyclopropane-1-carbonitrile] | 0.1 to 1 µM |
| CC(C)(C#N)Cc1nnc(-c2ccccc2Nc2ccc(C(F)(F)F)cc2)o1 [Compound 89, 2,2-dimethyl-3-(5-(2-((4-(trifluoromethyl)phenyl)amino)phenyl)-1,3,4-oxadiazol-2-yl)propanenitrile] | 0.1 to 1 µM |
| CCc1nnc(-c2ccccc2Nc2ccc(C(F)(F)F)cc2)o1 [Compound 90, 2-(5-ethyl-1,3,4-oxadiazol-2-yl)-N-(4-(trifluoromethyl)phenyl)aniline] | 0.1 to 1 µM |
| CC(C)NCCc1nnc(-c2ccccc2Nc2ccc(C(F)(F)F)cc2)o1 [Compound 91, 2-(5-(2-(isopropylamino)ethyl)-1,3,4-oxadiazol-2-yl)-N-(4-(trifluoromethyl)phenyl)aniline] | 1 to 5 µM |
| CC(C)N(C#N)CCc1nnc(-c2ccccc2Nc2ccc(C(F)(F)F)cc2)o1 [Compound 93, N-isopropyl-N-(2-(5-(2-((4-(trifluoromethyl)phenyl)amino)phenyl)-1,3,4-oxadiazol-2-yl)ethyl)cyanamide] | 0.1 to 1 µM |
| CCNCCc1nnc(-c2ccccc2Nc2ccc(C(F)(F)F)cc2)o1 [Compound 94, 2-(5-(2-(ethylamino)ethyl)-1,3,4-oxadiazol-2-yl)-N-(4-(trifluoromethyl)phenyl)aniline] | 1 to 5 µM |
| CCN(C#N)CCc1nnc(-c2ccccc2Nc2ccc(C(F)(F)F)cc2)o1 [Compound 96, N-ethyl-N-(2-(5-(2-((4-(trifluoromethyl)phenyl)amino)phenyl)-1,3,4-oxadiazol-2-yl)ethyl)cyanamide] | < 0.1 µM |
| CC(C)NCc1nnc(-c2ccccc2Nc2ccc(C(F)(F)F)cc2)o1 [Compound 97, 2-(5-((isopropylamino)methyl)-1,3,4-oxadiazol-2-yl)-N-(4-(trifluoromethyl)phenyl)aniline] | 1 to 5 µM |
| CC(C)N(C#N)Cc1nnc(-c2ccccc2Nc2ccc(C(F)(F)F)cc2)o1 [Compound 99, N-isopropyl-N-((5-(2-((4-(trifluoromethyl)phenyl)amino)phenyl)-1,3,4-oxadiazol-2-yl)methyl)cyanamide] | 0.1 to 1 µM |
| CCNCc1nnc(-c2ccccc2Nc2ccc(C(F)(F)F)cc2)o1 [Compound 100, 2-(5-((ethylamino)methyl)-1,3,4-oxadiazol-2-yl)-N-(4-(trifluoromethyl)phenyl)aniline] | 0.1 to 1 µM |
| CCN(C#N)Cc1nnc(-c2ccccc2Nc2ccc(C(F)(F)F)cc2)o1 [Compound 102, N-ethyl-N-((5-(2-((4-(trifluoromethyl)phenyl)amino)phenyl)-1,3,4-oxadiazol-2-yl)methyl)cyanamide] | < 0.1 µM |
| CC(C)(C(=O)O)c1nnc(-c2ccccc2Nc2ccc(C(F)(F)F)cc2)o1 [Compound 103, 2-methyl-2-(5-(2-((4-(trifluoromethyl)phenyl)amino)phenyl)-1,3,4-oxadiazol-2-yl)propanoic Acid] | 0.1 to 1 µM |
| NCCc1nnc(-c2ccccc2Nc2ccc(C(F)(F)F)cc2)o1 [Compound 104, 2-(5-(2-aminoethyl)-1,3,4-oxadiazol-2-yl)-N-(4-(trifluoromethyl)phenyl)aniline] | 1 to 5 µM |
| C=CC(=O)NCc1nnc(-c2ccccc2Nc2ccc(C(F)(F)F)cc2)o1 [Compound 108, N-((5-(2-((4-(trifluoromethyl)phenyl)amino)phenyl)-1,3,4-oxadiazol-2-yl)methyl)acrylamide] | < 0.1 µM |
| N#CCNC(=O)c1nnc(-c2ccccc2Nc2ccc(C(F)(F)F)cc2)o1 [Compound 114, N-(cyanomethyl)-5-(2-((4-(trifluoromethyl)phenyl)amino)phenyl)-1,3,4-oxadiazole-2-carboxamide] | < 0.1 µM |
| C#CCCNC(=O)c1nnc(-c2ccccc2Nc2ccc(C(F)(F)F)cc2)o1 [Compound 115, N-(but-3-yn-1-yl)-5-(2-((4-(trifluoromethyl)phenyl)amino)phenyl)-1,3,4-oxadiazole-2-carboxamide] | < 0.1 µM |
| C#CCNC(=O)c1nnc(-c2ccccc2Nc2ccc(C(F)(F)F)cc2)o1 [Compound 116, N-(prop-2-yn-1-yl)-5-(2-((4-(trifluoromethyl)phenyl)amino)phenyl)-1,3,4-oxadiazole-2-carboxamide] | < 0.1 µM |
| C/C=C/c1nnc(-c2ccccc2Nc2ccc(C(F)(F)F)cc2)o1 [Compound 117, (E)-2-(5-(prop-1-en-1-yl)-1,3,4-oxadiazol-2-yl)-N-(4-(trifluoromethyl)phenyl)aniline] | 0.1 to 1 µM |

Same assay, conditions: Homo sapiens, HEK-293T; […]; 24-hr incubation; top concentration 3 μM; read-out: Firefly Luciferase IC50

| Structure (SMILES) | IC50 |
| --- | --- |
| CC#CCOc1nnc(-c2ccccc2Nc2ccc(C(F)(F)F)cc2)o1 [Compound 70, 2-(5-(but-2-yn-1-yloxy)-1,3,4-oxadiazol-2-yl)-N-(4-(trifluoromethyl)phenyl)aniline] | 1 to 5 µM |
| OC(CCl)Cc1nnc(-c2ccccc2Nc2ccc(C(F)(F)F)cc2)o1 (stereo not drawn) [Compound 79, 1-chloro-3-(5-(2-((4-(trifluoromethyl)phenyl)amino)phenyl)-1,3,4-oxadiazol-2-yl)propan-2-ol] | < 0.1 µM |
| OC(CCCl)c1nnc(-c2ccccc2Nc2ccc(C(F)(F)F)cc2)o1 (stereo not drawn) [Compound 80, 3-chloro-1-(5-(2-((4-(trifluoromethyl)phenyl)amino)phenyl)-1,3,4-oxadiazol-2-yl)propan-1-ol] | < 0.1 µM |
| C=CCOc1nnc(-c2ccccc2Nc2ccc(C(F)(F)F)cc2)o1 [Compound 84, 2-(5-(allyloxy)-1,3,4-oxadiazol-2-yl)-N-(4-(trifluoromethyl)phenyl)aniline] | 0.1 to 1 µM |
| CC(C)(C(=O)NCC#N)c1nnc(-c2ccccc2Nc2ccc(C(F)(F)F)cc2)o1 [Compound 110, N-(cyanomethyl)-2-methyl-2-(5-(2-((4-(trifluoromethyl)phenyl)amino)phenyl)-1,3,4-oxadiazol-2-yl)propanamide] | 1 to 5 µM |
| C#CCNC(=O)C(C)(C)c1nnc(-c2ccccc2Nc2ccc(C(F)(F)F)cc2)o1 [Compound 112, 2-methyl-N-(prop-2-yn-1-yl)-2-(5-(2-((4-(trifluoromethyl)phenyl)amino)phenyl)-1,3,4-oxadiazol-2-yl)propanamide] | 1 to 5 µM |
| N#CCCNC(=O)c1nnc(-c2ccccc2Nc2ccc(C(F)(F)F)cc2)o1 [Compound 113, N-(2-cyanoethyl)-5-(2-((4-(trifluoromethyl)phenyl)amino)phenyl)-1,3,4-oxadiazole-2-carboxamide] | < 0.1 µM |

Source: patent publication US11661403B2, “Oxadiazole compounds” (Vivace Therapeutics, Inc., priority 2018, dated 2023)
